Results on 1 compound are retold here after US6844313B1, “Composition containing a meiosis activating substance” (Novo Nordisk A/S, priority 1999, dated 2005).

A short description of data set [1]: Solubility of FF-MAS in water, ethanol and ethanol/water. The data set is classed as physicochemical. The method, then: The solubility of a preferred MAS, i.e., FF-MAS, in water is very low, i.e., approximately 20 picogram/ml (corresponding to 2×10^−5 μg/ml), and in ethanol the solubility is substantially higher, i.e., approximately 4 mg/ml. According to our preliminary investigations, the highest solubility of FF-MAS in a mixture of ethanol and water (1:2.5) is approximately 0.4 mg/ml.

Data set [2] in a line: Solubility and appearance of FF-MAS in water/ethanol containing HSA before evaporation. Type of data set: physicochemical. The note with it: Example 3; ethanol/water mixture containing HSA. The method, then: Prepare a saturated ethanolic solution of FF-MAS. Blend with an aqueous solution of the additive in the ration 1:2,5. By visual inspection control that surplus FF-MAS is available in the solution. Rotate the solution for 24 hours at room temperature. Filter the solution through 0,22 […] filter, determine the content of FF-MAS by HPLC and calculate the solubility. Transfer 350μl to 4-well dish and evaporate to dryness at room temperature. Add 500μl MEM AL- PHA medium (Gibcobal). If a clear solution is obtained within half an hour, the composition is tested on oocytes obtained from immature female mice. % GVB obtained is at least 50%, preferable 80%, vide example 1.
In this example, 3 products were prepared. Referring to the table below, the stock solution of FF-MAS used for product 1, 2, and 3 contained 50, 500 and 3330 μg/ml, respectively. For each of the products, the stock solution of HSA contained 20% HSA. The amount of said stock solutions used is stated in the table. For example, for product 1, 400 μl of the FF-MAS stock solution was mixed with 1000 μl of the HSA stock solution. After mixing of these stock solutions, the solutions were clear, and no precipitation was observed therein. After mixing, the amount thereof stated in the table was transferred to 4-well multi-dishes (Nuclon, Denmark). […]

≈ marks a conversion by molar mass, not a printed value. Where two headings read alike, the source gives them in different places.

As to `CC(C)=CCC[C@@H](C)[C@H]1CC=C2C3=C(CC[C@@]21C)[C@@]1(C)CC[C@H](O)C(C)(C)[C@@H]1CC3` [FF-MAS, 4,4-dimethyl-5 α-cholesta-8,14,24-triene-3β-ol], the solubility (as a rule, the dissolved amount per volume that the medium holds) in data set [1] (ethanol, organic solvent or mixture, read-out: solubility in ethanol) was approximately 4000 µg/mL (≈ 9.74 mM); in data set [1] (ethanol/water (1:2.5), aqueous with cosolvent or surfactant or cyclodextrin, ethanol and water (1:2.5), no additive, preliminary investigations, read-out: highest solubility in a mixture of ethanol and water (1:2.5)), approximately 400 µg/mL (≈ 0.974 mM). In data set [1] (water), the solubility in water result is listed as “approximately 20 picogram/ml”. The “highest concentration of FF-MAS dissolved” value in data set [2] was determined as 0.95 mg/mL.
